Data published in US10456405B2, “Nitric oxide-releasing prodrug molecule of substituted quinazolines” (ZHEJIANG HUAHAI PHARMACEUTICAL CO., LTD, priority 2015, dated 2019).

Assays:
[1] = Release of nitric oxide in vitro (Griess reagent, nitrite); details: 10^−4 mol/L tested substance, phosphate buffer pH 7.4, cysteine 5 mmol/L, 37° C., 1 h; as nitrite
Protocol: Experiment 1. Experimental Study on the Tested Compounds for Releasing Nitric Oxide in vitro
Experimental Procedure: • (1) Preparation of Griess Reagent: 4 g of aminobenzenesulfonamide, 0.2 g of N-naphthyl ethylene diamine hydrochloride, and 10 mL of 85% phosphoric acid solution were taken to form a solution, which is diluted to 100 mL with distilled water. • (2) Plotting of the standard curve: a serie of standard solution of 0.01, 0.03, 0.05, 0.07, 0.09, 0.2, 0.4 μg/mL of nitrite nitrogen was prepared, 10 mL of each was taken to sufficiently mix with 2.5 mL of Griess reagent, standing at room temperature for 10 min, and its absorbance value at the wavelength of 540 nm was measured. The standard curve was plotted based on the resulting data. • (3) Measuring the amount of the released NO of the tested drug: all of the tested substances were dissolved in dimethylsulfoxide (1 mL) firstly. Then phosphate buffer (pH 7.4) was slowly added dropwise, and shaken. The drug solution was diluted to 50 mL, allowing the buffer solution to contain excess cysteine (5 mmol/L), and the final concentration of the tested substances being 10^−4 mol/L; the solution was incubated at 37° C. 2 mL of the reaction solution was taken to mix with 500 μl of Griess reagent at 1 h respectively, standing at room temperature for 10 min. The absorbance value of the mixture at 540 nm was measured. Isosorbide mononitrate was used as a positive control, and H130 was used as a negative control. The amount of the released NO was represented by the amount of its oxidation product, nitrite (NO2^−).

[2] = tested on: C57BL/6 mice; test: Serum NO level in C57 mice after oral gavage; assay type: in vivo; details: oral gavage 150 mg/kg (positive drug 5 mg/kg), FIG. 1
Description: Experimental method: 60 eight-week-old C57BL/6 mice (level: SPF; gender: male; source: Shanghai SLAC Laboratory Animal Co., Ltd.) were selected. […] were selected as the blank control. 12 mice were used as the positive drug control (isosorbide mononitrate). 12 mice were used as […] administration group. The other 32 mice were randomly divided into 4 groups, 8 mice per group, which are […] administration group, […] administration group, […] administration group, and […] administration group, respectively. The tested compounds of the positive drug control group and each administration group were dissolved in DMSO and then PEG400 was added thereto. The mixture was shaken and mixed thoroughly. At last, 10% of HP-β-CD was added. The mixture was shaken and mixed thoroughly. The ratio of each solvent was DMSO: PEG400:10% of HP-β-CD=5:67.5:27.5. The administration groups were administered by oral gavage at the dose of 150 mg/kg. The positive drug control group was administered at the dose of 5 mg/kg. The mice in each group were sacrificed by inhaling excess CO2 at 10 min, 30 min, 60 min, 120 min, 180 min, and 240 min after administration. The blood was collected into a 1.5 mL centrifuge tube, standing at room temperature for more than 30 min, and then centrifuged (3000 rpm, 10 min). The supernatant serum was aspirated, and stored at -80° C. for testing. After the blood was collected, the heart was cut with the thoracic aorta. Three parts of the heart were weighed and placed into cryovials, rapidly frozen in liquid nitrogen, and cryopreserved at -80° C. for testing. The aorta and aortic arch were weighed, rapidly frozen in liquid nitrogen, and cryopreserved at -80° C. for testing. The content of NO in the serum of C57BL/6 mice was determined by using the total NO test kit (Beyotime).

[3] = tested on: db/db mice; test: Serum NO and heart eNOS in db/db mice after oral gavage; assay type: in vivo; details: blank = 100, oral gavage 150 mg/kg (isosorbide mononitrate 5 mg/kg), 1 h after administration (H101: 2 h)
Procedure, shortened: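 Male 8-week-old BKS db/db mice received a single oral gavage dose of 150 mg/kg (isosorbide mononitrate 5 mg/kg) in DMSO/PEG400/10% HP-β-CD 5:67.5:27.5, n=4 per group. Sacrifice at 1 h (H101 at 2 h). Serum total NO by kit; heart eNOS taken as NOS activity difference ± L-NAME.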

| Compound | Amount of Released No [1] [µM] | time after administration at which serum NO level rose to its maximum, then decreased [2] [h] | Heart eNOS [3] [%] | Serum NO [3] [%] |
| --- | --- | --- | --- | --- |
| 2-[4-(5,7-dimethoxy-4-oxo-3,4-dihydro-quinazolin-2-yl)-2,6-dimethyl-phenoxy]-ethyl 4-(2-oxo-3-nitroxymethyl-1,2,5-oxadiazol-3-methyl)oxy-4-oxo-butyrate [Compound H111] | 52.12 | 1 | 165 | 154 |
| COc1cc(OC)c2c(=O)[nH]c(-c3cc(C)c(OCCO[N+](=O)[O-])c(C)c3)nc2c1 [Compound H101, 2-(4-(2-nitrooxy-ethoxy)-3,5-dimethylphenyl)-5,7-dimethoxyquinazolin-4(3H)-one] | 5.97 | 2 | 162 | 142 |
| COc1cc(OC)c2c(=O)[nH]c(-c3cc(C)c(OCCOC(=O)OC4COC5C(O[N+](=O)[O-])COC45)c(C)c3)nc2c1 (stereo not drawn) [Compound H119, 2-[4-(5,7-dimethoxy-4-oxo-3,4-dihydro-quinazolin-2-yl)-2,6-dimethyl-phenoxy]-ethyl (6-nitroxy-hexahydrofuro[3,2-b]furan-3-yl)-carbonate] | 1.24 | 1 | 156 | 152 |
